According to patent US8796289B2 (AbbVie Inc., priority 2011, dated 2014):

Biological target: GST-tagged-Wee1 kinase (Homo sapiens, UniProt P30291)
Test: Wee1 time-resolved fluorescence equilibrium binding assay (displacement of Oregon Green-labeled ATP-competitive kinase probe)
Description: Wee1 kinase was assayed using a time-resolved fluorescence equilibrium binding assay monitoring displacement of a rapidly reversible Oregon Green-labeled ATP-competitive kinase probe (N-(2-(2-(2-(4-(4-(5-chloro-4-(2-(1-hydroxycyclobutyl)thiazol-5-yl)-1H-pyrrolo[2,3-b]pyridin-2-yl)phenyl)piperazin-1-yl)ethoxy)ethoxy)ethyl)-2′,7′-difluoro-3′,6′-dihydroxy-3-oxo-3H-spiro[isobenzofuran-1,9′-xanthene]-5-carboxamide) by competitive Wee1 inhibitors.

GST-tagged-Wee1 kinase, sequence (P30291 whole entry): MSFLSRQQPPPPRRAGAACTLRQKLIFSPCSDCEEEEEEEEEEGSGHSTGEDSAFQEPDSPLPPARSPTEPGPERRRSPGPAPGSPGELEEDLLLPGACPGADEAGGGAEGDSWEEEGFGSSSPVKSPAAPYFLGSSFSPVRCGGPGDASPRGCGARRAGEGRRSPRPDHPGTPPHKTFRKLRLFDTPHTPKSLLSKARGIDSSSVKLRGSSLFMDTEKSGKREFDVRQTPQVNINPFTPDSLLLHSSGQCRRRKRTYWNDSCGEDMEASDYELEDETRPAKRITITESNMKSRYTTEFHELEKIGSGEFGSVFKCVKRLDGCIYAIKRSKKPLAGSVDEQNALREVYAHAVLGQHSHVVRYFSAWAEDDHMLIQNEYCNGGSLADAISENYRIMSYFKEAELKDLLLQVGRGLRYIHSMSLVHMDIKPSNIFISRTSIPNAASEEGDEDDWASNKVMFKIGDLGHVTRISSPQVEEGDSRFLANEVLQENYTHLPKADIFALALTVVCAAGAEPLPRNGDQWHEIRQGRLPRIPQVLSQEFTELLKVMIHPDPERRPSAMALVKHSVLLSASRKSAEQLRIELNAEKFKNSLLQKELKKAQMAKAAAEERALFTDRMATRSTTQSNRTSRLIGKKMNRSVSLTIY

Row | Structure (SMILES) | Ki
1 | CCc1nn(-c2c(Cl)cccc2Cl)c(=O)c2cnc(Nc3ccc4c(c3)CNCC4)nc12 [Example 403, 6-(2,6-dichlorophenyl)-8-ethyl-2-(1,2,3,4-tetrahydroisoquinolin-7-ylamino)pyrimido[4,5-d]pyridazin-5(6H)-one] | 210 pM
2 | CCc1nn(-c2c(Cl)cccc2Cl)c(=O)c2cnc(Nc3ccc4c(c3)CNCC43CC3)nc12 [Example 404, 6-(2,6-dichlorophenyl)-2-(2′,3′-dihydro-1′H-spiro[cyclopropane-1,4′-isoquinolin]-7′-ylamino)-8-ethylpyrimido[4,5-d]pyridazin-5(6H)-one] | 250 pM
3 | O=c1c2cnc(Nc3ccc(N4CCNCC4)cc3)nc2c(C(F)F)nn1-c1c(Cl)cccc1Cl [Example 405, 6-(2,6-dichlorophenyl)-8-(difluoromethyl)-2-{[4-(piperazin-1-yl)phenyl]amino}pyrimido[4,5-d]pyridazin-5(6H)-one] | 790 pM
4 | CCc1nn(-c2c(Cl)cccc2Cl)c(=O)c2cnc(Nc3ccc4c(c3)CC(N(C)C)C4)nc12 (centres unmarked) [Example 406, 6-(2,6-dichlorophenyl)-2-{[2-(dimethylamino)-2,3-dihydro-1H-inden-5-yl]amino}-8-ethylpyrimido[4,5-d]pyridazin-5(6H)-one] | 700 pM
5 | O=c1c2cnc(Nc3ccc4c(c3)CNCC43CC3)nc2c(C(F)F)nn1-c1c(Cl)cccc1Cl [Example 407, 6-(2,6-dichlorophenyl)-8-(difluoromethyl)-2-(2′,3′-dihydro-1′H-spiro[cyclopropane-1,4′-isoquinolin]-7′-ylamino)pyrimido[4,5-d]pyridazin-5(6H)-one] | 210 pM
6 | CN(C)C1Cc2ccc(Nc3ncc4c(=O)n(-c5c(Cl)cccc5Cl)nc(C(F)F)c4n3)cc2C1 (centres unmarked) [Example 408, 6-(2,6-dichlorophenyl)-8-(difluoromethyl)-2-{[2-(dimethylamino)-2,3-dihydro-1H-inden-5-yl]amino}pyrimido[4,5-d]pyridazin-5(6H)-one] | 410 pM
7 | CCc1nn(-c2c(Cl)cccc2Cl)c(=O)c2cnc(Nc3ccc(N4CCNCC4)cc3)nc12 [Example 409, 6-(2,6-dichlorophenyl)-8-ethyl-2-{[4-(piperazin-1-yl)phenyl]amino}pyrimido[4,5-d]pyridazin-5(6H)-one] | 1000 pM
8 | O=c1c2cnc(Nc3ccc4c(c3)CNCC4)nc2c(C(F)F)nn1-c1c(Cl)cccc1Cl [Example 410, 6-(2,6-dichlorophenyl)-8-(difluoromethyl)-2-(1,2,3,4-tetrahydroisoquinolin-7-ylamino)pyrimido[4,5-d]pyridazin-5(6H)-one] | 1000 pM
9 | CN1Cc2cc(Nc3ncc4c(=O)n(-c5c(Cl)cccc5Cl)nc(C(F)F)c4n3)ccc2C2(CC2)C1 [Example 411, 6-(2,6-dichlorophenyl)-8-(difluoromethyl)-2-[(2′-methyl-2′,3′-dihydro-1′H-spiro[cyclopropane-1,4′-isoquinolin]-7′-yl)amino]pyrimido[4,5-d]pyridazin-5(6H)-one] | 1000 pM
10 | CN1CCN(c2ccc(Nc3ncc4c(=O)n(-c5c(Cl)cccc5Cl)nc(C(F)(F)F)c4n3)cc2)CC1 [Example 412, 6-(2,6-dichlorophenyl)-2-{[4-(4-methylpiperazin-1-yl)phenyl]amino}-8-(trifluoromethyl)pyrimido[4,5-d]pyridazin-5(6H)-one] | 1000 pM
11 | CN1Cc2cc(Nc3ncc4c(=O)n(-c5c(Cl)cccc5Cl)nc(C(F)(F)F)c4n3)ccc2C2(CC2)C1 [Example 413, 6-(2,6-dichlorophenyl)-2-[(2′-methyl-2′,3′-dihydro-1′H-spiro[cyclopropane-1,4′-isoquinolin]-7′-yl)amino]-8-(trifluoromethyl)pyrimido[4,5-d]pyridazin-5(6H)-one] | 340 pM
12 | CCc1nn(-c2c(Cl)cccc2Cl)c(=O)c2cnc(Nc3ccc(N4CCN(C(C)=O)CC4)cc3)nc12 [Example 414, 2-{[4-(4-acetylpiperazin-1-yl)phenyl]amino}-6-(2,6-dichlorophenyl)-8-ethylpyrimido[4,5-d]pyridazin-5(6H)-one] | 750 pM
13 | CC(=O)N1Cc2cc(Nc3ncc4c(=O)n(-c5c(Cl)cccc5Cl)nc(C(F)F)c4n3)ccc2C2(CC2)C1 [Example 415, 2-[(2′-acetyl-2′,3′-dihydro-1′H-spiro[cyclopropane-1,4′-isoquinolin]-7′-yl)amino]-6-(2,6-dichlorophenyl)-8-(difluoromethyl)pyrimido[4,5-d]pyridazin-5(6H)-one] | 1000 pM
14 | Cc1nn(-c2c(Cl)cccc2Cl)c(=O)c2cnc(Nc3ccc4c(c3)CN(C(N)=O)CC43CC3)nc12 [Example 416, 7′-{[6-(2,6-dichlorophenyl)-8-methyl-5-oxo-5,6-dihydropyrimido[4,5-d]pyridazin-2-yl]amino}-1′H-spiro[cyclopropane-1,4′-isoquinoline]-2′(3′H)-carboxamide] | 190 pM
15 | CC(=O)N1Cc2cc(Nc3ncc4c(=O)n(-c5c(Cl)cccc5Cl)nc(C)c4n3)ccc2C2(CC2)C1 [Example 417, 2-[(2′-acetyl-2′,3′-dihydro-1′H-spiro[cyclopropane-1,4′-isoquinolin]-7′-yl)amino]-6-(2,6-dichlorophenyl)-8-methylpyrimido[4,5-d]pyridazin-5(6H)-one] | 310 pM
16 | O=c1c2cnc(Nc3ccc(N4CCNCC4)cc3)nc2c(C(F)(F)F)nn1-c1c(Cl)cccc1Cl [Example 418, 6-(2,6-dichlorophenyl)-2-{[4-(piperazin-1-yl)phenyl]amino}-8-(trifluoromethyl)pyrimido[4,5-d]pyridazin-5(6H)-one] | 350 pM
17 | CN1CCN(c2ccc(Nc3ncc4c(=O)n(-c5c(Cl)cccc5Cl)nc(CF)c4n3)cc2)CC1 [Example 419, 6-(2,6-dichlorophenyl)-8-(fluoromethyl)-2-{[4-(4-methylpiperazin-1-yl)phenyl]amino}pyrimido[4,5-d]pyridazin-5(6H)-one] | 190 pM
18 | O=c1c2cnc(Nc3ccc4c(c3)CNCC43CC3)nc2c(C(F)(F)F)nn1-c1c(Cl)cccc1Cl [Example 420, 6-(2,6-dichlorophenyl)-2-(2′,3′-dihydro-1′H-spiro[cyclopropane-1,4′-isoquinolin]-7′-ylamino)-8-(trifluoromethyl)pyrimido[4,5-d]pyridazin-5(6H)-one] | 450 pM
19 | O=c1c2cnc(Nc3ccc4c(c3)CNCC4)nc2c(C(F)(F)F)nn1-c1c(Cl)cccc1Cl [Example 421, 6-(2,6-dichlorophenyl)-2-(1,2,3,4-tetrahydroisoquinolin-7-ylamino)-8-(trifluoromethyl)pyrimido[4,5-d]pyridazin-5(6H)-one] | 500 pM
20 | O=c1c2cnc(Nc3ccc(C4CCNC4)cc3)nc2c(C(F)(F)F)nn1-c1c(Cl)cccc1Cl (centres unmarked) [Example 422, 6-(2,6-dichlorophenyl)-2-{[4-(pyrrolidin-3-yl)phenyl]amino}-8-(trifluoromethyl)pyrimido[4,5-d]pyridazin-5(6H)-one] | 400 pM
21 | COCc1nn(-c2c(Cl)cccc2Cl)c(=O)c2cnc(Nc3ccc(N4CCN(C)CC4)cc3)nc12 [Example 423, 6-(2,6-dichlorophenyl)-8-(methoxymethyl)-2-{[4-(4-methylpiperazin-1-yl)phenyl]amino}pyrimido[4,5-d]pyridazin-5(6H)-one] | 700 pM
22 | COCc1nn(-c2c(Cl)cccc2Cl)c(=O)c2cnc(Nc3ccc(N4CCNCC4)cc3)nc12 [Example 424, 6-(2,6-dichlorophenyl)-8-(methoxymethyl)-2-{[4-(piperazin-1-yl)phenyl]amino}pyrimido[4,5-d]pyridazin-5(6H)-one] | 400 pM
23 | Cc1nn(-c2c(Cl)cccc2Cl)c(=O)c2cnc(Nc3ccc(N4CCC(N(C)C)CC4)cc3)nc12 [Example 425, 6-(2,6-dichlorophenyl)-2-({4-[4-(dimethylamino)piperidin-1-yl]phenyl}amino)-8-methylpyrimido[4,5-d]pyridazin-5(6H)-one] | 190 pM
24 | Cc1nn(-c2c(Cl)cccc2Cl)c(=O)c2cnc(Nc3ccc4c(c3)CN(C(=O)CO)CC43CC3)nc12 [Example 426, 6-(2,6-dichlorophenyl)-2-{[2′-(hydroxyacetyl)-2′,3′-dihydro-1′H-spiro[cyclopropane-1,4′-isoquinolin]-7′-yl]amino}-8-methylpyrimido[4,5-d]pyridazin-5(6H)-one] | 110 pM
25 | Cc1nn(-c2c(Cl)cccc2Cl)c(=O)c2cnc(Nc3ccc4c(c3)CN(S(C)(=O)=O)CC43CC3)nc12 [Example 427, 6-(2,6-dichlorophenyl)-8-methyl-2-{[2′-(methylsulfonyl)-2′,3′-dihydro-1′H-spiro[cyclopropane-1,4′-isoquinolin]-7′-yl]amino}pyrimido[4,5-d]pyridazin-5(6H)-one] | 910 pM
26 | COCc1nn(-c2c(Cl)cccc2Cl)c(=O)c2cnc(Nc3ccc4c(c3)CNCC43CC3)nc12 [Example 428, 6-(2,6-dichlorophenyl)-2-(2′,3′-dihydro-1′H-spiro[cyclopropane-1,4′-isoquinolin]-7′-ylamino)-8-(methoxymethyl)pyrimido[4,5-d]pyridazin-5(6H)-one] | 240 pM
27 | COCc1nn(-c2c(Cl)cccc2Cl)c(=O)c2cnc(Nc3ccc4c(c3)CN(C)CC43CC3)nc12 [Example 429, 6-(2,6-dichlorophenyl)-8-(methoxymethyl)-2-[(2′-methyl-2′,3′-dihydro-1′H-spiro[cyclopropane-1,4′-isoquinolin]-7′-yl)amino]pyrimido[4,5-d]pyridazin-5(6H)-one] | 480 pM
28 | O=c1c2cnc(Nc3ccc(N4CCNCC4)cc3)nc2c(CO)nn1-c1c(Cl)cccc1Cl [Example 430, 6-(2,6-dichlorophenyl)-8-(hydroxymethyl)-2-{[4-(piperazin-1-yl)phenyl]amino}pyrimido[4,5-d]pyridazin-5(6H)-one] | 200 pM
29 | CN1CCN(c2ccc(Nc3ncc4c(=O)n(-c5c(Cl)cccc5Cl)nc(CO)c4n3)cc2)CC1 [Example 431, 6-(2,6-dichlorophenyl)-8-(hydroxymethyl)-2-{[4-(4-methylpiperazin-1-yl)phenyl]amino}pyrimido[4,5-d]pyridazin-5(6H)-one] | 420 pM
